For data set [1], the target named is Tyrosine-protein kinase Lyn (Rattus norvegicus) (UniProt Q07014). Kind of data set: Inhibition of Lyn in rat RBL2H3 cells assessed as reduction in mouse anti-DNP IgE-induced Syk phosphorylation level at 10 uM preincubated for 15 mins followed by mouse anti-DNP IgE stimulation and measured after 3 hrs by Western blot analysis. It counts as cell-based.
The test system of data set [2] is RBL-2H3. Kind of data set: Anti-allergic activity in rat RBL2H3 cells assessed as reduction in mouse anti-DNP IgE-induced IL-4 level preincubated for 15 mins followed by mouse anti-DNP IgE-stimulation and measured after 3 hrs by ELISA. Type of data set: functional, cell-based. A general note: ELISA stands for enzyme-linked immunosorbent assay.
Data set [3] deals with RBL-2H3. Kind of data set: Anti-allergic activity in rat RBL2H3 cells assessed as reduction in mouse anti-DNP IgE-induced TNF-alpha level preincubated for 15 mins followed by mouse anti-DNP IgE-stimulation and measured after 3 hrs by ELISA. Type of data set: functional, cell-based.
Data set [4] addresses Tyrosine-protein kinase Lyn (Rattus norvegicus) (UniProt Q07014). Kind of data set: Inhibition of mouse anti-DNP IgE-induced Lyn phosphorylation in rat RBL2H3 cells at 10 uM preincubated for 15 mins followed by mouse anti-DNP IgE stimulation and measured after 3 hrs by Western blot analysis. It counts as cell-based.
Data set [5] concerns RBL-2H3. Kind of data set: Anti-allergic activity in rat RBL2H3 cells assessed as reduction in calcium ionophore-induced IL-4 level preincubated for 15 mins followed by calcium ionophore stimulation and measured after 3 hrs by ELISA. It counts as functional, cell-based.
The test system of data set [6] is RBL-2H3. Kind of data set: Effect on mouse anti-DNP IgE-induced Syk protein expression in rat RBL2H3 cells at 10 uM preincubated for 15 mins followed by mouse anti-DNP IgE stimulation and measured after 3 hrs by Western blot analysis. It counts as functional, cell-based.
The test system of data set [7] is RBL-2H3. Kind of data set: Anti-allergic activity in rat RBL2H3 cells assessed as reduction in calcium ionophore-induced beta-hexosaminidase release preincubated for 15 mins followed by calcium ionophore-stimulation and measured after 3 hrs by p-nitrophenyl-2-acetamide-2-deoxy-beta-glucopyranoside dye-based colorimetric analysis. Type of data set: functional, cell-based.

Data set [8] has as its target Tyrosine-protein kinase Lyn (Rattus norvegicus) (UniProt Q07014). Kind of data set: Inhibition of Lyn in rat RBL2H3 cells assessed as reduction in mouse anti-DNP IgE-induced PLCgamma1-phosphorylation level at 10 uM preincubated for 15 mins followed by mouse anti-DNP IgE stimulation and measured after 3 hrs by Western blot analysis. Type of data set: cell-based. Background: A western blot detects proteins with antibodies after separation by electrophoresis.

In data set [9] the test system is RBL-2H3. Kind of data set: Effect on mouse anti-DNP IgE-induced Lyn protein expression in rat RBL2H3 cells at 10 uM preincubated for 15 mins followed by mouse anti-DNP IgE stimulation and measured after 3 hrs by Western blot analysis. It counts as functional, cell-based.
Data set [10] deals with RBL-2H3. Kind of data set: Anti-allergic activity in rat RBL2H3 cells assessed as reduction in calcium ionophore-induced TNF-alpha level preincubated for 15 mins followed by calcium ionophore stimulation and measured after 3 hrs by ELISA. Type of data set: functional, cell-based.
In data set [11] the target is Tyrosine-protein kinase Lyn (Homo sapiens) (UniProt P07948). Kind of data set: Competitive inhibition of human LYN expressed in baculovirus infected Sf9 insect cells using […] at 10 uM after 10 mins by Lineweaver-Burk plot analysis.
Sequence of Tyrosine-protein kinase Lyn (Homo sapiens) (P07948 2-512 limits assumed): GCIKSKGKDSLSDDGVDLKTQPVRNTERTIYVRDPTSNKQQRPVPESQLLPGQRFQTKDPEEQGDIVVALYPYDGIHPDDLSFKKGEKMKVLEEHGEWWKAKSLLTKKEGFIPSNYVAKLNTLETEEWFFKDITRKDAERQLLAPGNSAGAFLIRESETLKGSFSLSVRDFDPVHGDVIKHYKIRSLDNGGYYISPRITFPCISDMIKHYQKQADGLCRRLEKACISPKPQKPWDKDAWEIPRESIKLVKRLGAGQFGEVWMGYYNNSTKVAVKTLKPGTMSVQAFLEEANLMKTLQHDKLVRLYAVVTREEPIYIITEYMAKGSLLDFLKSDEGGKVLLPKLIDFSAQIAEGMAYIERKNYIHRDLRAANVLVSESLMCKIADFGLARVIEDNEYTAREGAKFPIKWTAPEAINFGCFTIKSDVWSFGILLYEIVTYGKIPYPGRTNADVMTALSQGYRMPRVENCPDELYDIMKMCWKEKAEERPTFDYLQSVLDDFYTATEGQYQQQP
The test system of data set [12] is RBL-2H3. Kind of data set: Anti-allergic activity in rat RBL2H3 cells assessed as reduction in mouse anti-DNP IgE-induced beta-hexosaminidase release preincubated for 15 mins followed by mouse anti-DNP IgE-stimulation and measured after 3 hrs by p-nitrophenyl-2-acetamide-2-deoxy-beta-glucopyranoside dye-based colorimetric analysis. Type of data set: functional, cell-based.

The test system of data set [13] is RBL-2H3. Kind of data set: Cytotoxicity in rat RBL2H3 cells assessed as LDH release. The arrangement: concentration or dose not given beside the values. Type of data set: cell-based.
The target of data set [14] is Tyrosine-protein kinase Lyn (Homo sapiens) (UniProt P07948). Particulars: Sf9, 10 uM.
Description: Inhibition of human LYN expressed in baculovirus infected Sf9 insect cells using p-nitrophenol at 10 uM after 10 mins by Lineweaver-Burk plot analysis

This passage reports inhibition, IC50 and Activity results from ChEMBL document CHEMBL4422669, “Bisorbicillinol inhibits Lyn tyrosine kinase for allergic response on RBL-2H3 cells” (Bioorg Med Chem Lett, 2019).

The source made the active and inactive calls. The rule behind the calls is not given here.

Sequence of Tyrosine-protein kinase Lyn (Rattus norvegicus) (Q07014 whole entry): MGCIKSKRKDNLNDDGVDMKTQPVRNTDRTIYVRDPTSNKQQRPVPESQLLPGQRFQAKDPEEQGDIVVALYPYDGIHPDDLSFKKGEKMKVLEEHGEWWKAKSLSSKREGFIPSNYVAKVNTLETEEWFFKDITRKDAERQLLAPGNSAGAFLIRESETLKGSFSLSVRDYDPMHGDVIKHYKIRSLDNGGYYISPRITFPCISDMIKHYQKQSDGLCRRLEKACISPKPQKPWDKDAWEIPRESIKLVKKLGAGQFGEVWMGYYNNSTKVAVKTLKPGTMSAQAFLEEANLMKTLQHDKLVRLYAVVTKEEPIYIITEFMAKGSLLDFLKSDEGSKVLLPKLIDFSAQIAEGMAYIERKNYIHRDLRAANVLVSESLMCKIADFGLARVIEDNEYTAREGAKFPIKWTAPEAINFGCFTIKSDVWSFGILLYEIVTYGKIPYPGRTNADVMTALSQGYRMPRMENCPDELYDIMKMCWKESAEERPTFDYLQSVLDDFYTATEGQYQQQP

By IC50 is commonly meant the concentration needed to halve the response being measured. For `C/C=C/C=C/C(=O)[C@]12C(=O)C(C)=C(O)[C@@](C)(O)[C@H]1[C@H]1\C(=C(O)/C=C/C=C/C)C(=O)[C@]2(C)C(=O)[C@@]1(C)O` [BISORBICILLINOL], the inhibition entry in data set [1], in data set [8] and in data set [11] was “Active” in each case. For the same compound, the IC50 was determined as 2.8 µM with RBL-2H3 [2]; 2.9 µM in the data set with RBL-2H3 [3]; 4.9 µM in the data set with RBL-2H3 [5]; 53.6 µM in the data set with RBL-2H3 [7]; 63.8 µM in the data set on RBL-2H3 [10]; 2.8 µM in the data set on RBL-2H3 [12]. Besides, the inhibition entry in data set [4] was “inactive”. For the same compound, the result with RBL-2H3 [6] and in the data set with RBL-2H3 [9] was inactive. Also, the Activity in the data set with RBL-2H3 [13] was less than 5%.

In the case of `C/C=C/C=C/C(=O)c1cc(C)c(O)c(C)c1O`, the IC50 is less than 100 µM with RBL-2H3 [7], less than 100 µM in the data set on RBL-2H3 [10] and 26.5 µM with RBL-2H3 [12]. In addition, in the data set on RBL-2H3 [13], the Activity is less than 5%.

In the case of `C/C=C/C=C/C(=O)C1=C[C@@]2(C)[C@H]3C(C(=O)/C=C/C=C/C)=C(O)C(C)=C(O)[C@@]3(C)O[C@@]2(O)[C@@](C)(O)C1=O` [BISVERTINOLONE], the 50% inhibitory concentration (IC50) is 7.7 µM in the data set with RBL-2H3 [2]; 40.8 µM in the data set with RBL-2H3 [3]; 7.3 µM in the data set on RBL-2H3 [5]; less than 100 µM in the data set on RBL-2H3 [7]; less than 100 µM in the data set on RBL-2H3 [10]; 9.1 µM in the data set on RBL-2H3 [12]. Besides, the Activity with RBL-2H3 [13] is less than 5%.

In the case of `C/C=C/C=C/C(O)=C1/C(=O)[C@@]2(C)[C@H]3\C(=C(O)/C=C/C=C/C)C(=O)[C@@]4(C)[C@@H]1[C@]1(C)O[C@@]4(O)[C@@]3(C)O[C@@]12O`, the half-maximal inhibitory concentration (IC50) is 6.9 µM in the data set with RBL-2H3 [2]; 29.6 µM in the data set with RBL-2H3 [3]; 9.1 µM in the data set with RBL-2H3 [5]; less than 100 µM in the data set with RBL-2H3 [7]; 23.2 µM in the data set on RBL-2H3 [10]; 18.3 µM with RBL-2H3 [12]. For the same compound, the Activity with RBL-2H3 [13] was less than 5%.

For `C/C=C/C=C/C(=O)C1=C[C@](C)(OC(C)=O)C(=O)C(C)=C1O`, the 50% inhibitory concentration (IC50) was 8.5 µM in the data set on RBL-2H3 [2]; 35.6 µM in the data set with RBL-2H3 [3]; 27.1 µM with RBL-2H3 [5]; less than 100 µM in the data set with RBL-2H3 [7]; less than 100 µM in the data set with RBL-2H3 [10]; 4.8 µM in the data set on RBL-2H3 [12]. The Activity in the data set on RBL-2H3 [13] is on record as less than 5%.

As for `CN[C@@H]1C[C@H]2O[C@@](C)([C@@H]1OC)n1c3ccccc3c3c4c(c5c6ccccc6n2c5c31)C(=O)NC4`, the inhibition result in data set [14] was “Active”. Further, the inhibition result in data set [11] was “inactive”.

For the compound `C/C=C/C=C/C(O)=C1/C(=O)[C@@]2(C)[C@H]3\C(=C(O)/C=C/C=C/C)C(=O)[C@H]4[C@@H]1[C@]1(C)O[C@@]4(O)[C@@]3(C)O[C@@]12O`, the IC50 in the data set with RBL-2H3 [2] was 59.4 µM; in the data set with RBL-2H3 [3], 17.3 µM; in the data set with RBL-2H3 [5], 17.9 µM; with RBL-2H3 [7], less than 100 µM; with RBL-2H3 [10], less than 100 µM; with RBL-2H3 [12] it was 4.5 µM. Besides, the Activity with RBL-2H3 [13] is listed as less than 5%.
